This is an account of results in US12275744B2, “Pyrazole and imidazole derivatives, compositions and methods as orexin antagonists” (HAGER BIOSCIENCES, LLC, priority 2019, dated 2025).

One experiment concerns the target T1, human orexin-2 receptor (Homo sapiens, UniProt O43614).
T1 sequence (O43614 1-444): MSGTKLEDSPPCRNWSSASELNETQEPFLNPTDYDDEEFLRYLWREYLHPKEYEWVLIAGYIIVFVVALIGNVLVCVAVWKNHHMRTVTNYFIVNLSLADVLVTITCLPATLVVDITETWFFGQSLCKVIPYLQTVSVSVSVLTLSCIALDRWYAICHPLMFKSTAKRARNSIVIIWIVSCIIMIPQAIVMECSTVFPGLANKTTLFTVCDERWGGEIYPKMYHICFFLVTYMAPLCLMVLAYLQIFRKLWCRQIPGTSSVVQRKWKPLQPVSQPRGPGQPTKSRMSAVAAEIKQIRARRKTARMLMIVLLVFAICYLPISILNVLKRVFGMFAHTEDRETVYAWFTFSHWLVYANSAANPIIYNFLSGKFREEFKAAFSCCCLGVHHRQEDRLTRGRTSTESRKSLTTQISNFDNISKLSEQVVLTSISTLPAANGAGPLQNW
Put plainly: Intracellular calcium measurement (FLIPR), antagonism of orexin-A response in CHO cells expressing OX2R. Particulars: for inhibition at 1 µM: CHO, read-out: % Inhibition of OX2R @1 uM compound.

For the next experiment, the target named is T2, human orexin-1 receptor (Homo sapiens, UniProt O43613).
T2 sequence (O43613 1-425): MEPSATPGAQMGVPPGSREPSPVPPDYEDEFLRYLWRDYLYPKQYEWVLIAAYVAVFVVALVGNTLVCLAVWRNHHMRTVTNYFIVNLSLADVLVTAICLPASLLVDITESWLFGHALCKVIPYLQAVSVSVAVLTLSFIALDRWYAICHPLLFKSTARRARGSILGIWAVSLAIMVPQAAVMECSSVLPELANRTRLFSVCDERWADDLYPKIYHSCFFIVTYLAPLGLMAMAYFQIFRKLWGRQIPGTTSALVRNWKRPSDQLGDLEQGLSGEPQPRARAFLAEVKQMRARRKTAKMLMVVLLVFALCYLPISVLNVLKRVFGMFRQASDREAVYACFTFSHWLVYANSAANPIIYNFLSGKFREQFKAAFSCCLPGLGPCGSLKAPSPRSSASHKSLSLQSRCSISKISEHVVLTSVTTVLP
Put plainly: Intracellular calcium measurement (FLIPR), antagonism of orexin-A response in CHO cells expressing OX1R. Particulars: for inhibition at 1 µM: CHO, read-out: % Inhibition of OX1R @1 uM compound. (A change in cytosolic calcium serves as a functional read-out for many receptors and channels.)

A further experiment deals with T3, OX1R (Homo sapiens, UniProt O43613).
T3 sequence (O43613 1-425): T2 sequence (O43613 1-425)
Particulars: relative to Orexin B; Kodadek and Cai 2010; cited from earlier work.

Method for human orexin-1 receptor: (§1) In Vitro Assay: Intracellular Calcium Measurements:
(§2) Chinese hamster ovary (CHO) cells expressing the human orexin-1 receptor and the human orexin-2 receptor, respectively, are grown in culture medium (Ham F-12 with L-Glutamine) containing 300 μg/mL G418, 100 U/mL penicillin, 100 μg/mL streptomycin and 10% heat inactivated fetal calf serum (FCS). The cells are seeded at 20,000 cells/well into 384-well black clear bottom sterile plates (Greiner). The seeded plates are incubated overnight at 37° C. in 5% CO2.
(§3) Within the Fluorescent Imaging Plate Reader (FLIPR Tetra, Molecular Devices), antagonists are added to the plate in a volume of 10 μL/well, incubated for 120 min and finally 10 μL/well of agonist is added. Fluorescence is measured for each well at 1 second intervals, and the height of each fluorescence peak is compared to the height of the fluorescence peak-induced by 3 nM orexin-A with vehicle in place of antagonist. […] Optimized conditions were achieved by adjustment of pipetting speed and cell splitting regime. The calculated IC50 values may fluctuate depending on the daily cellular assay performance.
Method for human orexin-2 receptor: as §1, §2, §3

The term inhibition denotes the change of the read-out against control, counted positive when it falls. A word on the IC50: it is the midpoint of a concentration-inhibition curve. The term Kb denotes the affinity of an antagonist, worked out from how it opposes an agonist. For the compound `O=C(c1c(-c2ccccc2)nn2c1COCC2)N1CCC[C@H]1Cn1ccc(-c2ccccc2)n1` [Example 1], the inhibition at 1 µM on human orexin-2 receptor was 28.2%. On human orexin-1 receptor, the IC50 is 0.033 µM, the antagonist dissociation constant (Kb) amounted to 0.007 µM and the inhibition at 1 µM is 69.7%.

In the case of `O=C(c1c(-c2ccccc2)nn2c1COCC2)N1CCC[C@H]1CNc1ccc(C(F)(F)F)cn1` [Example 2], the inhibition at 1 µM on human orexin-2 receptor worked out at 20.9%. At human orexin-1 receptor, the IC50 came to 0.122 µM, the antagonist dissociation constant (Kb) is 0.026 µM and the inhibition at 1 µM was 62.8%.

Consider `CCc1cnc(NC[C@@H]2CCCN2C(=O)c2c(-c3ccccc3)nn3c2COCC3)nc1` [Example 3], for which the inhibition at 1 µM on human orexin-2 receptor is 14.2%; on human orexin-1 receptor it was 14%.

For `CCc1cnc(NC[C@@H]2[C@H](C)CCCN2C(=O)c2c(-c3ccccc3)nn3ccccc23)nc1` [Example 4], the inhibition at 1 µM on human orexin-2 receptor amounted to 12.8%; on human orexin-1 receptor it was 85.7%.

`CCc1cnc(NC[C@@H]2[C@H](C)CCCN2C(=O)c2c(-c3ccccc3)nn3c2COCC3)nc1` [Example 5]: the inhibition at 1 µM at human orexin-2 receptor is 0.4%. Moreover, at human orexin-1 receptor, the half-maximal inhibitory concentration (IC50) turned out to be 0.136 µM, the antagonist dissociation constant (Kb) was determined as 0.029 µM and the inhibition at 1 µM came to 71%.

In the case of `C[C@@H]1CCCN(C(=O)c2c(-c3ccccc3)nn3ccccc23)[C@@H]1CNc1ccc(C(F)(F)F)cn1` [Example 6], the inhibition at 1 µM at human orexin-2 receptor was found to be 38.5%. At human orexin-1 receptor, the IC50 is 0.008 µM, the Kb worked out at 0.0017 µM and the inhibition at 1 µM worked out at 87.6%.

`C[C@@H]1CCCN(C(=O)c2c(-c3ccccc3)nn3c2COCC3)[C@@H]1CNc1ccc(C(F)(F)F)cn1` [Example 7]: the inhibition at 1 µM at human orexin-2 receptor worked out at 2.44%. At human orexin-1 receptor, the concentration for half-maximal inhibition (IC50) stood at 0.009 µM, the Kb amounted to 0.002 µM and the inhibition at 1 µM was 80.1%.

`C[C@@H]1CCCN(C(=O)c2c(-c3ccccc3)nc3ccccn23)[C@@H]1CNc1ccc(C(F)(F)F)cn1` [Example 8]: the inhibition at 1 µM on human orexin-2 receptor worked out at 13.8%. At human orexin-1 receptor, the IC50 came to 0.005 µM, the antagonist dissociation constant (Kb) came to 0.001 µM and the inhibition at 1 µM is 86.1%.

For the compound `CCc1cnc(NC[C@@H]2[C@H](C)CCCN2C(=O)c2c(-c3ccccc3)nc3ccccn23)nc1` [Example 9], the inhibition at 1 µM at human orexin-2 receptor is -2.51%. Moreover, at human orexin-1 receptor, the IC50 was determined as 0.059 µM, the Kb stood at 0.012 µM and the inhibition at 1 µM came to 76.8%.

In the case of `O=C(c1c(-c2ccccc2)nn2ccccc12)N1CCC[C@H]1CNc1ccc(C(F)(F)F)cn1` [Example 10], the inhibition at 1 µM at human orexin-2 receptor worked out at 43.5%. For the same compound, at human orexin-1 receptor, the half-maximal inhibitory concentration (IC50) was determined as 0.0035 µM, the antagonist equilibrium constant (Kb) stood at 0.0007 µM and the inhibition at 1 µM turned out to be 86.9%.

As to `O=C(c1c(-c2ccccc2)nc2ccccn12)N1CCC[C@H]1CNc1ccc(C(F)(F)F)cn1` [Example 11], the inhibition at 1 µM on human orexin-2 receptor was found to be 21.6%. Also, on human orexin-1 receptor, the half-maximal inhibitory concentration (IC50) stood at 0.039 µM, the Kb worked out at 0.008 µM and the inhibition at 1 µM worked out at 67.1%.

Take `O=C(c1c(-c2ccccc2)nc2ccccn12)N1CCC[C@H]1Cn1ccc(-c2ccccc2)n1` [Example 12]: the inhibition at 1 µM on human orexin-2 receptor amounted to 46.1%. At human orexin-1 receptor, the IC50 was 0.002 µM, the Kb was determined as 0.0005 µM and the inhibition at 1 µM was found to be 88.9%.

Consider `O=C(c1c(-c2ccccc2)nn2ccccc12)N1CCC[C@H]1Cn1ccc(-c2ccccc2)n1` [Example 13], for which, on human orexin-2 receptor, the 50% inhibitory concentration (IC50) was 0.07 µM, the Kb came to 0.009 µM and the inhibition at 1 µM stood at 78.5%. Moreover, the inhibition at 1 µM at human orexin-1 receptor amounted to 96.6%.

In the case of `CCc1cnc(NC[C@@H]2CCCN2C(=O)c2c(-c3ccccc3)nc3ccccn23)nc1` [Example 14], the inhibition at 1 µM on human orexin-2 receptor came to 18.3%; at human orexin-1 receptor, 14.8%.

Turning to `CCc1cnc(NC[C@@H]2CCCN2C(=O)c2c(-c3ccccc3)nn3ccccc23)nc1` [Example 15], on human orexin-2 receptor, the inhibition at 1 µM turned out to be 37.3%. Moreover, on human orexin-1 receptor, the IC50 stood at 0.178 µM, the antagonist equilibrium constant (Kb) came out at 0.037 µM and the inhibition at 1 µM came out at 54.1%.

With `CCc1cnc(OC[C@@H]2CCCN2C(=O)c2c(-c3ccccc3)nn3c2COCC3)nc1` [Example 16], the inhibition at 1 µM on human orexin-2 receptor amounted to 7.77%; on human orexin-1 receptor, 0.59%.

For the compound `O=C(c1c(-c2ccccc2)nn2c1COCC2)N1CCC[C@H]1COc1ccc(C(F)(F)F)cn1` [Example 17], the inhibition at 1 µM at human orexin-2 receptor was 5.78%; on human orexin-1 receptor, 45.1%.

In the case of `O=C(c1c(-c2ccccc2)nc2ccccn12)N1CCC[C@H]1COc1ccc(C(F)(F)F)cn1` [Example 18], the inhibition at 1 µM at human orexin-2 receptor was found to be 29.6%. At human orexin-1 receptor, the IC50 turned out to be 0.293 µM, the Kb amounted to 0.062 µM and the inhibition at 1 µM was 70%.

Turning to `CCc1cnc(OC[C@@H]2CCCN2C(=O)c2c(-c3ccccc3)nc3ccccn23)nc1` [Example 19], the inhibition at 1 µM is 11.2% at human orexin-2 receptor and -10.8% on human orexin-1 receptor.

For the compound `O=C(c1c(-c2ccccc2)nn2ccccc12)N1CCC[C@H]1COc1ccc(C(F)(F)F)cn1` [Example 20], the inhibition at 1 µM on human orexin-2 receptor worked out at 49.6%. At human orexin-1 receptor, the IC50 turned out to be 0.011 µM, the antagonist equilibrium constant (Kb) worked out at 0.002 µM and the inhibition at 1 µM worked out at 84.9%.

Consider `CCc1cnc(OC[C@@H]2CCCN2C(=O)c2c(-c3ccccc3)nn3ccccc23)nc1` [Example 21], for which the values for the inhibition at 1 µM on human orexin-2 receptor and at human orexin-1 receptor were 26.9% and 38.8%, respectively.

For the compound “Orexin A: excitatory hypothalamic neuropeptide, a 33 amino acid peptide; endogenous ligand of OX1R and OX2R (QPLPDCCRQKTCSCRLYELLHGAGNHAAGILTL; Orexin-A; UniProt O43612 34-66, looked up)”, the “affinity for OX1R, higher than Orexin B” value in the experiment with OX1R is reported as “about 100 fold”.
